Measurements as given in PMC11596155, “When Chirality Makes the Difference: The Case of Novel Enantiopure N-Heterocyclic Carbene–Gold and –Silver Complexes” (Molecules, 2024).

How the values were obtained:
[1] = test system: Staphylococcus aureus (ATCC 23235); assay: MIC and MBC by broth dilution, S. aureus; type: cell-based; conditions: broth dilution, overnight 37 °C
Text: (§1) The bacterial strains used for MIC and MBC value determinations expressed as µg/mL by the broth dilution method, according to CLSI guidelines, were the following: Gram-negative: Escherichia coli (ATCC® 25922TM); Gram-positive: Staphylococcus aureus (ATCC® 23235TM). The MIC represents the lowest concentration of compound able to inhibit the visible microbial growth, expressed in μg/mL, whereas the MBC is the lowest concentration of a given compound that can completely kill the bacteria. Bacteria were grown overnight in LB medium (2%), diluted at a density of […] colony forming units (CFUs/mL), plated in the 96-well microplates to obtain a total inoculum load of ca. 10^5 cells/well and then treated with increasing concentrations of the tested complexes (1, 5, 10, 20, 50, 100, 200 μg/mL). Successively, after incubation at 37 °C overnight, the bacterial growth was monitored at a wavelength of 600 nm using a Multiskan spectrophotometer (Multiskan Ex Microplate model; Thermo Scientific, Nyon, Switzerland). MIC or MBC values were obtained by comparing cell density with a positive control (bacterial cells grown in LB medium were added with only the vehicle, DMSO). The results were representative of three independent experiments performed in triplicate and ampicillin (Sigma Aldrich A9393) was used as the control for strain sensitivity.

[2] = test system: NO production in LPS-stimulated RAW 264.7 macrophages (iNOS); assay: Griess assay, NO production in LPS-stimulated RAW 264.7 macrophages; type: cell-based, murine; conditions: 24 h, LPS 1 µg/mL, RAW 264.7, vs LPS only
Text: Inflammation is an important process, in which the immune system is activated, allowing the protection from infections by eliminating pathogens and promoting repairing phenomena. However, in some cases, the inflammation can become chronic, playing a key role in several diseases, such as cancer, diabetes, autoimmune and neurodegenerative disorders. Moreover, chronic inflammation is characterized by a proliferation of different specialized cells, for instance macrophages, fibroblasts, granulocytes and so on. […] NO is produced by nitric oxide synthases (NOS) isoforms, but under different pro-inflammatory stimuli (cytokines or microbial products) it is massively produced by the inducible NOS (iNOS, NOS2; or type II NOS). iNOS can be also overexpressed in several diseases, producing NO in an unregulated manner and contributing to the disease progression. For these reasons, its inhibition represents a good strategy for the treatment of various diseases related to chronic inflammation, amongst them cancer. The anti-inflammatory activity, in terms of NO production inhibition, of the new synthesized chiral complexes was evaluated by the means of a Griess-based assay. Particularly, the NO production was induced in murine macrophages RAW 264.7 stimulated with bacterial lipopolysaccharide (LPS), then they were exposed to the complexes for 24 h and the released NO was quantified (as detailed in the Section 3). […] Therefore, pro-ligands P1 and P2, as R and S pure enantiomers, were tested. The obtained outcomes are visible in Figure 2 (panels A and B, P1 and P2 series, respectively), where it is possible to notice “at glance” that most of the enantiopure compounds were unable to decrease the NO synthesis, induced by LPS treatment in RAW 264.7 macrophages (see pink bars in the graph), with the exception of (R)-AuL1 and (R)-AuL2. Particularly, (R)-AuL1 was able to decrease, dose-dependently, the NO production of about 23 and 35% at 5 and 10 µM, respectively, whereas the S enantiomer was unable to reduce NO, under the same experimental conditions. […] Furthermore, none of the pro-ligands was found able to decrease NO production. […] Finally, viability assays were performed on RAW 264.7 macrophages, recovered after the Griess test.
Anti-inflammatory activity was tested adopting the Griess assay on RAW 264.7 murine macrophages, by measuring NO production, as reported by. Specifically, RAW 264.7 cells were plated on 48 multi-wells and treated with the tested molecules at the indicated concentrations; lipopolysaccharide (LPS, Sigma Aldrich, Milan, Italy), at a final concentration of 1 µg/mL, was used to induce inflammation and stimulate NO production. After 24 h, the cell medium and Griess reagent were mixed at a 1:1 ratio and left under agitation for 30 min, at room temperature. Then, absorbance was measured at 540 nm, using a multiplate reader. The absorbance obtained allowed to assess the percentage of NO production compared with the positive control, in which the cells have been treated with LPS.
Figure 2 Panel (A), L1 series and panel (B), L2 series. Anti-inflammatory activity (pink bars): NO production was induced in murine macrophages RAW 264.7 treated with LPS (1 µg/mL), in presence or not of the enantiopure complexes and pro-ligands at the indicated concentrations (µM), for 24 h. Indomethacin (Ind) was used as the reference molecule. Data were plotted as % NO inhibition with respect to LPS-only treatment. […]

[3] = test system: Escherichia coli (ATCC 25922); assay: MIC and MBC by broth dilution, E. coli; type: cell-based; conditions: broth dilution, overnight 37 °C
Text: as §1

MCF-10A cells = assay: MTT assay, cytotoxicity on normal mammary epithelial cells MCF-10A; type: cell-based, human; conditions: 72 h
Protocol: (§2) All cell lines used for the reported studies were purchased from the American Type Culture Collection (ATCC, Manassas, VA, USA). Human breast cancer cells MCF-7 and MDA-MB-231 were maintained in Dulbecco’s Modified Eagle Medium/Nutrient Mixture F12 Ham (DMEM/F12) supplemented with 5% fetal bovine serum (FBS), 1% L-glutamine and 100 units/mL of penicillin/streptomycin. Human mammary epithelial cells MCF-10A were cultured in DMEM/F12 medium, supplemented with 5% horse serum (HS), 100 units/mL of penicillin/streptomycin, […], 0.02 µg/mL human epidermal growth factor (EGF), 10 µg/mL insulin and […] [34]. The murine macrophages RAW 264.7 were grown in Dulbecco’s Modified Eagle’s Medium (DMEM) high glucose (4.5 g/L), added with 10% fetal bovine serum (FBS), 1% L-glutamine and 100 units/mL of penicillin/streptomycin. Cells were maintained at 37 °C, in a humidified atmosphere containing 5% CO2.
(§3) Cell viability was determined using the 3-(4,5-dimethylthiazol-2-y1)-2,5-diphenyltetrazolium bromide assay (MTT, Sigma-Aldrich, Milan, Italy), as in [35]. Cells were treated for 72 h (anticancer activity) or 24 h (anti-inflammatory activity) at different concentrations and the IC50 values were obtained using GraphPad Prism 9 software (GraphPad Software, La Jolla, CA, USA).

MCF-7 cells = assay: MTT assay, anticancer activity, MCF-7; type: cell-based, human; conditions: 72 h, mean ± SD of three experiments
Protocol: as §2, §3

MDA-MB-231 cells = assay: MTT assay, anticancer activity, MDA-MB-231; type: cell-based, human; conditions: 72 h, mean ± SD of three experiments
Protocol: as §2, §3

Structure (SMILES): CN1C(Cl)=C(Cl)N(C[C@H](O)c2ccccc2)[CH]1[Au-][Cl] (stereo partly drawn) [(R)-AuL2, (4,5-dichloro-1-((R)-2-hydroxy-2-phenylethyl)-3-methyl-2,3-dihydro-1H-imidazol-2-yl)gold(I) chloride]
- M.B.C. S. aureus [1]: > 100 µg/mL
- M.I.C. S. aureus [1]: 75 µg/mL
- decrease of NO production ([2]; 1 µM): about 10%
- decrease of NO production ([2]; 5 µM): ~50%
- M.B.C. E. coli [3]: > 150 µg/mL
- M.I.C. E. coli [3]: 75 µg/mL
- cytotoxicity toward normal MCF-10A cells (in words) (MCF-10A cells): did not impact
- IC50 (MCF-10A cells; normal cells, mean ± SD of three experiments): 38 ± 2.2 µM
- IC50 (MCF-7 cells): 2200 ± 200 nM
- IC50 (MDA-MB-231 cells): 1200 ± 200 nM
